Data from US9610371B2, “Anticancer therapy” (STC.UNM, priority 2005, dated 2017).
Entries after “also recorded” stand apart in the source; their conditions may differ. Read-outs that look alike come from different tables or passages of the source. Positions of bridges follow the written chain, without caps; N, C: chain ends. Non-standard residues stand in square brackets, D forms with d. Residues, ends and D or L forms follow the SMILES beside them.

Tests used:
[1] = system: Capan-2 cells; assay: CellTiter-Glo Luminescent Cell Viability Assay, gemcitabine pre-treated and non-treated Capan-2; type: cell-based, human
Experimental: Effects of 37 kBq and 370 kBq of ^177Lu labeled DOTATOC and DOTA on gemcitabine pre-treated Capan-2 cells and non-treated cells were evaluated using CellTiter-Glo® Luminescent Cell Viability Assay (Promega, Madison, Wis.) and Cell Death Detection ELISA^PLUS10× (Roche Applied Sciences, IN) for apoptosis. Cell viability was evaluated at 24 and 48 hours of incubations.

[2] = system: Capan-2 cells; assay: Cell Death Detection ELISA PLUS apoptosis, gemcitabine pre-treated and non-treated Capan-2; type: cell-based, human; conditions: 72 hours
Experimental: […] Capan-2 cells and non-treated cells were evaluated using CellTiter-Glo® Luminescent Cell Viability Assay (Promega, Madison, Wis.) and Cell Death Detection ELISA^PLUS10× (Roche Applied Sciences, IN) for apoptosis. Cell viability was evaluated at 24 and 48 hours of incubations.

[3] = molecular target: human sst1 (Homo sapiens, UniProt P30872); conditions: cited from earlier work
human sst1, sequence (P30872 whole entry): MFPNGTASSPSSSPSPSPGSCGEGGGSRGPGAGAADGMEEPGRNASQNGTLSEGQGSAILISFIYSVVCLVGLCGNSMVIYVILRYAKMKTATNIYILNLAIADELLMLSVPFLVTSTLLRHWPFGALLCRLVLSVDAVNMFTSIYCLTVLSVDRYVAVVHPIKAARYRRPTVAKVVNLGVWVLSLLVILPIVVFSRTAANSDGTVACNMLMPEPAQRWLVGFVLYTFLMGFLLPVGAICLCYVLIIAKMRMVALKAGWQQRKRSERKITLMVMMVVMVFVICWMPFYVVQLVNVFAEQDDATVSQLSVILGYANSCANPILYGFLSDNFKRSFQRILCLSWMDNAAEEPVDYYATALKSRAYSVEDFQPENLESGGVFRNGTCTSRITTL

[4] = molecular target: human sst2 (Homo sapiens, UniProt P30874); conditions: cited from earlier work
human sst2, sequence (P30874 whole entry): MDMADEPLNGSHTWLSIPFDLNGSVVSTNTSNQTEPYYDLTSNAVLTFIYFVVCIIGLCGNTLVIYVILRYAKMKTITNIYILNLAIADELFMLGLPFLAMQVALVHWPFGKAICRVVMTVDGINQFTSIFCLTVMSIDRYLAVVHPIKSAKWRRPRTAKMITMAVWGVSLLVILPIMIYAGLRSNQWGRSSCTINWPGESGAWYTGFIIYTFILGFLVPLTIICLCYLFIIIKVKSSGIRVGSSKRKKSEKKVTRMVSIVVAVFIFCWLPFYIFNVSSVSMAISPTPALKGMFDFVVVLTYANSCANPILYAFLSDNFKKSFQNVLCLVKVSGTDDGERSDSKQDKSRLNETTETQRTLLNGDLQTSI

[5] = molecular target: human sst3 (Homo sapiens, UniProt P32745); conditions: cited from earlier work
human sst3, sequence (P32745 whole entry): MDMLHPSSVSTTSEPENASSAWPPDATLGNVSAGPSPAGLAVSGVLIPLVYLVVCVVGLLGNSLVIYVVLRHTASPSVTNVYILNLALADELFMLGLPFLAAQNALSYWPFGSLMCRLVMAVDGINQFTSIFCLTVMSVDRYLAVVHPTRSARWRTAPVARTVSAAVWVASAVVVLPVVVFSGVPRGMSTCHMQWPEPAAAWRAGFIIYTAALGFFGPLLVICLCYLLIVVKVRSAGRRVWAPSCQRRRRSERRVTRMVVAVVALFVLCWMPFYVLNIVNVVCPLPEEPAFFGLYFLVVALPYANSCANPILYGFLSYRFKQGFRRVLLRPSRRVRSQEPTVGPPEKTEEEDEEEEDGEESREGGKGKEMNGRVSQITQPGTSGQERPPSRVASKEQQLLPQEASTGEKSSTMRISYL

[6] = molecular target: human sst4 (Homo sapiens, UniProt P31391); conditions: cited from earlier work
human sst4, sequence (P31391 whole entry): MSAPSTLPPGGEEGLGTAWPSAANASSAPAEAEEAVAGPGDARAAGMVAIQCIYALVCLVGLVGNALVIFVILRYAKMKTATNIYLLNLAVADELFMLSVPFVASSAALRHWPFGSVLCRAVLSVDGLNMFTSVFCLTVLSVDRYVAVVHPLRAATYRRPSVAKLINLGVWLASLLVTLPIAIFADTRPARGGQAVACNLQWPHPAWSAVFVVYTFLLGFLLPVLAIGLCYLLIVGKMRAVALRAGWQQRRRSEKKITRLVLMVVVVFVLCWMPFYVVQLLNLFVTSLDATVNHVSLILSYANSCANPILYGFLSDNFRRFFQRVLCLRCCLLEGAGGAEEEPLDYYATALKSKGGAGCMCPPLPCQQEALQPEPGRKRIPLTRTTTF

[7] = 25 day toxicology in tumor bearing male Lewis rats; type: in vivo, Lewis rat; conditions: 25 days; 12.6 MBq ^213Bi-DOTATOC group and DOTATOC control group
Experimental: Toxicology was assessed at 25 days in 4 groups of tumor bearing male Lewis rats (average volume […]). Rats in the first group, Cohort 1, were injected on day 1 only. Rats in second cohort were injected on days 1 and 2, while rats in the third cohort were injected on days 1, 2, and 3. Rats were injected with 2.56 μg, 0.5 μg, 0.5 μg DOTATOC, on day 1, day 2 and day 3, respectively, with a nominal activity of 3.7 MBq. Each dose was divided into 2 injections at 1 hour intervals. The rats received the following cumulative average activities per group: Cohort 1 (N=3) received 4.3±0.7 MBq, Cohort 2 (N=3) received 9.0±0.4 MBq, and Cohort 3 (N=4) received 12.6±0.3 MBq of ^213Bi-DOTATOC. Cohort 4 (N=4) was added as control group and injected twice daily with unlabelled DOTATOC on three consecutive days.
After 24 days, the animals were put into a metabolic cage to collect urine samples for creatinine clearance analysis. Creatine clearance was determined as previously described (20). After 24 hour urine collection, the animals were euthanized with halothane. For blood collection, a cardiac puncture was performed. Blood analysis consisted of hemoglobin (Hgb), hematocrit (Hct), red blood cells (RBC's), and white blood cells (WBC's) with differential, and platelets (Pt's). Additionally T4 and FSH values were assessed using the serum.
Additional groups were then designed to study the effects of the treatment on a somatostatin receptor positive tumor. The first group was designed to study the effects of treatment on large volume tumors (average volume 1720±608 mm^3). This group, Cohort 5 (N=5), received three fractionated doses of ^213Bi-DOTATOC (specific activity 7.4 MBq ^213Bi/1 μG DOTATOC) with a total average cumulative dose of 13.0±0.5 MBq of ^213Bi-DOTATOC. The last cohort, the sixth cohort (N=4), was injected with two fractionated doses, ^213Bi-DOTATOC (specific activity 7.4 MBq ^213Bi/1 μG DOTATOC) with a total average cumulative dose of 22.2±0.7 MBq of ^213Bi-DOTATOC. As described earlier, each dose was divided into 2 injections separated by a 1 hour interval. Tumor response to the treatment was assessed in all cohorts by daily tumor measurements.
Organs were harvested and immediately placed in 10% formalin for a minimum of 48 hours. Following fixation in formalin, bone samples were placed in decalcifying solution for 36 hours. Trimmed organs were sent to the TriCore Laboratories (Albuquerque, N. Mex.) where they were embedded in paraffin, sectioned, and stained with Hematoxylin and Eosin (H and E). Histopathologic evaluation was performed by a board certified veterinary pathologist (DFK) who examined the following organs of each animal: heart, lung, kidneys, testicles, spleen, pancreas, pituitary bone marrow, urinary bladder, adrenals, and two different sections of the liver.
Sections of both the right and left kidneys were examined to determine nephrotoxicity in all cohorts. Bone marrow was examined to evaluate hypoplasia and other lesions in Cohorts 3 and 4. Interstitial nephritis and bone marrow were scored as follows: 0 no lesions, 1 minimal lesions, 2 mild lesions, 3 moderate lesions, and 4 severe lesions.
For the pathology scoring, to evaluate nephrotoxicity on the 6 treatment groups, a frequency analysis was performed in StatXact-5 using the Jonckheere-Terpstra Test. For all other data, graphs and calculations were performed in SigmaStat®-3 and SigmaPlot®-9 as well as Graph Pad Prism®-4 using the t-test. For all statistical tests results were considered significant when p<0.05. Animal biodistribution and tumor volume data are expressed as the average, plus or minus the SEM.

[8] = system: Capan-2; assay: Apoptosis in Capan-2 cells, with or without gemcitabine pre-treatment; type: cell-based, human; conditions: Capan-2, 1 μg/mL, FIG. 7
From the text: Alpha emitters such as ^213Bi are known to cause G2M arrest and induce apoptosis in cancer cell lines. Experiments were thus performed to evaluate radiation-induced apoptosis and the radiobiological and radiotherapeutical relevance of this mode of cell death in selection of a radionuclide for therapy.
Activation or down regulation of pro- and anti-apoptotic genes influence cancer cell viability, cancer cell sensitivity to chemotherapy and radiotherapy, and tumor development and progression. A variety of chemotherapeutic agents induce cell death via apoptosis. Gemcitabine is known to induce apoptosis primarily due to Bax overexpression, whereas Bcl-xl is known to reduce gemcitabine-induced apoptosis. In contrast, Capan-2 is […] to Fas-mediated apoptosis. […] The data is expressed as ±S.E.M. of mean apoptosis. […] But when combined with radiolabeled DOTATOC, a synergetic effect on induction of apoptosis is observed.

[9] = system: somatostatin receptor binding sites of Capan-2 cells; assay: Radioligand assay of ^177Lu-DOTATOC binding after gemcitabine pre-treatment; type: cell-based, human; conditions: 4 days 1 μg/mL pre-treatment and 4 days of replenishment
Experimental: A radioligand assay was performed to evaluate receptor binding by the recognition ligand after pre-treatment of 4 days with 1 μg/mL gemcitabine and 4 days of replenishment.

[10] = system: human SSTR subtypes (SSTR1-SSTR5); conditions: cited from earlier work

Compound	affinity for sst1 [3]	affinity for sst2 [4]	affinity for sst3 [5]	affinity for sst4 [6]	further results
O=C([O-])CN1CCN(CC(=O)[O-])CCN(CC(=O)[O-])CCN(CC(=O)[O-])CC1.[177Lu+3].[H+] [^177Lu-DOTA]	–	–	–	–	effects of radiosensitivity induced by gemcitabine pre-treatment on cell viability ([1]; 24 hours, higher doses (370 kBq)): can be observed; effects of radiosensitivity induced by gemcitabine pre-treatment on cell viability ([1]; 48 hours, 370 kBq as well as 37 kBq): observed; effect on apoptosis, gemcitabine pre-treated vs non-treated Capan-2 [2]: Enhancements of radiation induced apoptosis
C[C@@H](O)[C@@H]1NC(=O)[C@H](CCCCN)NC(=O)[C@@H](Cc2c[nH]c3ccccc23)NC(=O)[C@H](Cc2ccccc2)NC(=O)[C@@H](NC(=O)[C@H](N)Cc2ccccc2)CSSC[C@@H](C(=O)N[C@H](CO)[C@@H](C)O)NC1=O [octreotide, D-Phe-Cys-Phe-D-Trp-Lys-Thr-Cys-Thr-OH]	very low affinity	high affinity	moderate affinity; also recorded: lower affinity	very low affinity	affinity for sst4 ([6]; listed as OCT): little or no affinity
C[C@@H](O)[C@@H]1NC(=O)[C@H](CCCCN)NC(=O)[C@@H](Cc2c[nH]c3ccccc23)NC(=O)[C@H](Cc2ccc(O)cc2)NC(=O)[C@@H](NC(=O)[C@@H](Cc2ccccc2)NC(=O)CN2CCN(CC(=O)O)CCN(CC(=O)O)CCN(CC(=O)O)CC2)CSSC[C@@H](C(=O)N[C@H](CO)[C@@H](C)O)NC1=O [DOTATOC, [DOTA^0, Tyr^3] octreotide]	–	–	–	–	bone marrow analysis (hypoplasia, hyperplasia, lesions) [7]: no lesions; effects on cell viability ([1]; 24 hours, 70 pM and 7 fM, gemcitabine pre-treated and non-treated Capan-2): no significant effects; effects on the induction of apoptosis ([2]; without radiolabel): minimal effects
Nc1ccn([C@@H]2O[C@H](CO)[C@@H](O)C2(F)F)c(=O)n1 [gemcitabine, 2′,2′-difluoro-2′-deoxycytidine]	–	–	–	–	induction of apoptosis by itself [8]: does not induce any significant amount of apoptosis; more binding sites than the non-treated Capan-2 cells [9]: ~70%
SST-24: somatostatin form bound by all 5 human SSTR subtypes; probably a misprint of somatostatin-14	–	–	–	–	binding to all 5 human SSTR subtypes [10]: high affinity
SST-28: somatostatin variant that is a 28 amino acid peptide	–	–	–	–	binding to all 5 human SSTR subtypes [10]: high affinity
CC(C)[C@@H]1NC(=O)[C@H](CCCCN)NC(=O)[C@@H](Cc2c[nH]c3ccccc23)NC(=O)[C@H](Cc2ccc(O)cc2)NC(=O)[C@@H](NC(=O)[C@H](N)Cc2ccc3ccccc3c2)CSSC[C@@H](C(=O)N[C@H](C(N)=O)[C@@H](C)O)NC1=O [lanreotide, D-βNal-Cys-Tyr-D-Trp-Lys-Val-Cys-Thr-NH2]	very low affinity	high affinity	moderate affinity; also recorded: lower affinity	very low affinity	affinity for sst4 ([6]; listed as LAN): moderate affinity
CC(C)[C@@H]1NC(=O)[C@H](CCCCN)NC(=O)[C@@H](Cc2c[nH]c3ccccc23)NC(=O)[C@H](Cc2ccc(O)cc2)NC(=O)[C@@H](NC(=O)[C@H](N)Cc2ccccc2)CSSC[C@@H](C(=O)N[C@@H](Cc2c[nH]c3ccccc23)C(N)=O)NC1=O [vapreotide, D-Phe-Cys-Tyr-D-Trp-Lys-Val-Cys-Trp-NH2] (H-[dF]CY[dW]KVCW-NH2; disulfide 2-7)	very low affinity	high affinity	moderate affinity	moderate affinity	–
